# Results reported in patent US11549115B2, “Compositions and methods for regulated gene expression” (YALE UNIVERSITY, priority 2017, dated 2023).
# Experiments:
# [1] = LC-MS quantification of aTC in fecal pellets; assay type: in vivo, mice
# Method: Germ-free Swiss Webster mice were maintained in flexible plastic gnotobiotic isolators with a 12-hour light/dark cycle and provided a standard, autoclaved mouse chow (5K67 LabDiet, Purina) ad libitum and autoclaved water for the duration of the experiment. Filter-sterilized aTC was added to drinking water stored in red-tinted bottles (Ancare, #PC9RH8.5RD) to inhibit degradation by light. Mice were co-housed for the duration of the experiments. Cage changes were always carried out when aTC was withdrawn from drinking water. Fecal and luminal samples were collected and processed in 2.0 mL screw cap tubes (Axygen Scientific; #SCT-200-C). Germ free status was monitored by 16S rDNA-targeted PCR of fecal DNA and anaerobic and aerobic culture of fecal samples.
# Groups of 6 germ-free Swiss Webster mice were orally gavaged with 1×10^9 CFU of the desired B. thetaiotaomicron strain. Fecal samples (˜100-200 mg) were collected daily for 12 days. aTC (100 μg/mL) was administered in drinking water for 12 hours after fecal collection on day 1. Fecal samples were homogenized in 1 mL of 1× tris-buffered saline (TBS) with a single 5 mm stainless steel bead using a bead beater (BioSpec Products) at 26° C. for 1 minute on the high setting, followed by vortexing at top speed for 8 minutes. Samples were then centrifuged at 500×g for 1 minute to pellet fibrous and insoluble matter. Bacterial cells from 600 μL of the supernatant was isolated through centrifugation at 21,130×g for 3 minutes, resuspended in 50 μL of Sialidase Reaction buffer (50 mM Tris-HCl pH 7.0, 5 mM EDTA) containing 1× BugBuster, and stored at −80° C. for ex vivo sialidase measurements (described below).
# To the remaining material, 400 mg of 0.1 mm glass beads was added and further homogenized by bead beating for 2 minutes. Insoluble material was pelleted by centrifuging the sample for 3 minutes at 21,130×g, and 20 μL of the supernatant was used for mass spectrometry measurements of sialic acid and aTC by liquid chromatography coupled tandem mass spectrometry (QqQ) and mass spectrometry (qTOF), respectively.
# For aTC measurements, 5 μL of internal standard solution (0.25 μM sulfamethoxazole and caffeine in H2O) were added to each sample (20 μL) and further processed as described above. Dried samples were re-suspended in 4 μL methanol and diluted in 12 μL H2O. Chromatographic separation was performed on a C18 Kinetex Evo column (Phenomenex, 100 mm×2.1 mm, 1.7 μm particle size) using mobile phase A: H2O, 0.1% formic acid and B: methanol, 0.1% formic acid at 45° C. 10 μL of sample were injected at 100% A and 0.4 mL/min flow followed by a linear gradient to 95% B over 5.5 min and 0.4 mL/min flow leading to aTC, caffeine and sulfamethoxazole elution at 3.0, 1.9, 2.1 min, respectively. The qTOF was operated in positive scanning mode (50-1000 m/z) and the following source parameters: VCap: 3500 V, nozzle voltage: 2000 V, gas temp: 225° C.; drying gas 13 L/min; nebulizer: 20 psig; sheath gas temp 225° C.; sheath gas flow 12 L/min. Online mass calibration was performed using a second ionization source and a constant flow (5 μL/min) of reference solution (121.0509 and 922.0098 m/z). Compounds were identified based on the retention time of chemical standards and their accurate mass (tolerance 20 ppm). The MassHunter Quantitative Analysis Software (Agilent, version 7.0) was used for peak integration and quantification was based on calibration curves using chemical standards and the signal intensity of the internal standard spiked into each sample.
# [2] = in vivo; cited from earlier work
# [3] = tested on: Bt::tetR P1TDP^GH023-NanoLuc; assay type: in vivo, mice
# Method: Germ-free Swiss Webster mice were orally gavaged with a mixture of 1×10^8 CFU of each of 14 human gut microbes shown in FIG. 12D and Table 3. With the exception of the reporter strain, all species are sensitive to gentamicin and/or erythromycin (data not shown). Colonization was allowed to stabilize for at least 7 days prior to the start of the experiment. Fecal pellets were collected daily, and mice were given aTC (100 μg/mL) in the drinking water for 48 hours after stool collection on Day 3. Fecal samples were homogenized, and fibrous/insoluble matter removed as described above. From the supernatant, 200 μL was stored for DNA purification as previously described (Goodman, A. L. et al., 2011, Nat. Protoc., 6:1969-1980) and subsequent qPCR analysis (described below), 10 μL was used for CFU determination of the reporter strain by plating dilutions on BHI-blood agar plates containing gentamicin and erythromycin, and 500 μL was used for luminescence measurements (described below).
# At each time point, abundance of each species was assessed by qPCR from fecal DNA using strain specific primers described previously (Cullen, T. W. et al., 2015, Science, 347:170-175). qPCR was performed as described (Goodman, A. L. et al., 2009, Cell Host and Microbe, 6:279-289; Martens, E. C. et al., 2008, Cell Host and Microbe, 4:447-457) using a CFX96 instrument (BioRad) and SYBR FAST universal master mix (KAPA Biosystems). Mean strain quantities were calculated using a standard curve.
# The 500 μL collected from the resuspended fecal supernatant was centrifuged at 21,130×g for 3 minutes to pellet bacterial cells, which were then resuspended in 50 μL 1× BugBuster (Novagen) in 1×PBS and lysed by one round of freeze-thaw and 10 minutes of nutation at 26° C. Samples were centrifuged at 21,130×g for 10 minutes at 4° C., and 10 μL of the supernatant was mixed with an equal volume of NanoLuc Reaction Buffer to induce luminescence production. Luminescence was measured after a 5 minute incubation at 26° C. on a plate reader (BioTek Synergy H1) with an integration time of 1 second at a gain setting of 100. […]
# [4] = 12 hours of aTC (100 μg/mL) via drinking water
compound,measurement,setting,value
"Cc1c2c(c(O)c3c(O)cccc13)C(=O)[C@]1(O)C(=O)C(C(N)=O)=C(O)[C@@H](N(C)C)[C@@H]1C2 [aTC, Anhydrotetracycline]",time to spike of inducer levels in fecal pellets,[1]; [4],≤ 12 h
same,time to undetectable after the spike,[1]; [4],24 h
same,half-life,"[1]; Swiss Webster, mouse, faeces, oral, fecal pellets, gnotobiotic mice with wildtype B. thetaiotaomicron, 100 μg/mL in drinking water for 4 days, read-out: half-life in vivo (converted)",19 h
same,degradation by B. thetaiotaomicron in vivo,[1]; comparison with germfree mice,does not degrade aTC in vivo
same,time to detection after addition to drinking water,"[1]; fecal pellets, 100 μg/mL",≤ 24 h
same,time to undetectable after removal from the water,"[1]; fecal pellets, 100 μg/mL for 4 days",6 days
same,concentration in drinking water that does not adversely affect mouse health,[2],100 µg/mL
same,complete repression after removal of the inducer,[3]; 14-species community,7 to 9 days
same,increase of luminescence in fecal pellets,"[3]; 14-species community, within 24 hours of 100 μg/mL aTC","~4,500 fold"
same,impact on community structure,"[3]; alpha and beta diversity, 19-day experiment",did not impact community structure
